The values that follow come from article PMC11062922 (Nature Chemical Biology, 2023).

Molecules are shown by their SMILES. Where two headings read alike, the source gives them in different places.

One experiment has as its target PKN3 (Homo sapiens, UniProt Q6P5Z2). Kind of experiment: NanoBRET in-cell target engagement in HEK293T cells: PKN3.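 Note: Full-length PKN3 with C-terminal NanoLuc expressed in HEK293T cells, serial inhibitor dilutions competing against Kinase Tracer K5 at 500 nM, BRET read after 2 h at 37 °C.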 The format is cell-based. Further details: full-length PKN3, CSNK2A1 or CSNK2A2 ORF; host or cells: HEK293T. (BRET reads energy transfer from a luciferase to a nearby fluorophore.)
Experiment [1] has as its target T1, ABL1 (Homo sapiens, UniProt P00519). Kind of experiment: Kinobeads two-dose competition binding: ABL1. To be noted: sheet "Kinobeads Drugmatrix - all"; unit inferred; read-out: Kinobeads Drugmatrix - all: apparent Kd, ABL1.
The target of a further experiment is T2, ABL2 (Homo sapiens, UniProt P42684).
T2 construct: endogenous in cells
Kind of experiment: Kinobeads two-dose competition binding: ABL2. The note with it: sheet CATDS matrix 2; Gene Name ABL2.

In a further experiment the target is T3, ACAD11 (Homo sapiens, UniProt Q709F0).
T3 construct: endogenous in cells
T3 sequence (Q709F0 1-780): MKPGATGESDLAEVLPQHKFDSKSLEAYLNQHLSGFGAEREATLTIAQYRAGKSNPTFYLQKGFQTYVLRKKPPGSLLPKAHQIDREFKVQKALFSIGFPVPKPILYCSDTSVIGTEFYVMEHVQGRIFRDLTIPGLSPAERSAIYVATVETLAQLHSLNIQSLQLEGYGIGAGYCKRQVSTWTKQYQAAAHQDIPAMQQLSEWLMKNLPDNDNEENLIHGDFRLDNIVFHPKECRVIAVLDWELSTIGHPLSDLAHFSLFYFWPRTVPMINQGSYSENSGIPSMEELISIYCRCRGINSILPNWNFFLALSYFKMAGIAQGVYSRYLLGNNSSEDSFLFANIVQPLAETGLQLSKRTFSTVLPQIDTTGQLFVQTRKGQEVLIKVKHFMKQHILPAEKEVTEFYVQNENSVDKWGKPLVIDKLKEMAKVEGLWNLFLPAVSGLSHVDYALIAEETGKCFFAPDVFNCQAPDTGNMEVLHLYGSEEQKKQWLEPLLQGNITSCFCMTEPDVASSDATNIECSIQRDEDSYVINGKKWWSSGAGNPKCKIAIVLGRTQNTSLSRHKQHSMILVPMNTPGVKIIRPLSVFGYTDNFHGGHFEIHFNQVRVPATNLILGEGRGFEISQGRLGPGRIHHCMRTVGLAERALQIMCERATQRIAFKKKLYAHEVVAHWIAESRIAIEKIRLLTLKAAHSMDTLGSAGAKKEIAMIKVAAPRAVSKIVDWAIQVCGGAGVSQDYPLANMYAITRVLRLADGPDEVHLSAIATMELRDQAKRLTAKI
Kind of experiment: Kinobeads two-dose competition binding: ACAD11. The note with it: sheet CATDS matrix 2; Gene Name ACAD11.

Experiment [2] addresses T1, ABL1. Kind of experiment: Kinobeads two-dose competition binding: ABL1. To be noted: sheet CATDS matrix 2; Gene Name ABL1.
A further experiment addresses T4, AAK1 (Homo sapiens, UniProt Q2M2I8).
T4 construct: to maximize the representation of endogenous proteins; endogenous in cells
Description: Kinobeads two-dose competition binding: AAK1.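 For all read-outs here: kinobeads competition pulldown from cell lysate, compound preincubated 45 min at 4 °C, bead-bound protein measured by label-free mass spectrometry against DMSO vehicle control.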 To be noted: for potency estimated from few doses: read-out: Kinobeads Drugmatrix - all: apparent Kd, AAK1; for CATDS: sheet CATDS matrix 2, Gene Name AAK1.

Another experiment concerns the target T5, ACOX1 (Homo sapiens, UniProt Q15067).
T5 construct: endogenous in cells
T5 sequence (Q15067 1-660): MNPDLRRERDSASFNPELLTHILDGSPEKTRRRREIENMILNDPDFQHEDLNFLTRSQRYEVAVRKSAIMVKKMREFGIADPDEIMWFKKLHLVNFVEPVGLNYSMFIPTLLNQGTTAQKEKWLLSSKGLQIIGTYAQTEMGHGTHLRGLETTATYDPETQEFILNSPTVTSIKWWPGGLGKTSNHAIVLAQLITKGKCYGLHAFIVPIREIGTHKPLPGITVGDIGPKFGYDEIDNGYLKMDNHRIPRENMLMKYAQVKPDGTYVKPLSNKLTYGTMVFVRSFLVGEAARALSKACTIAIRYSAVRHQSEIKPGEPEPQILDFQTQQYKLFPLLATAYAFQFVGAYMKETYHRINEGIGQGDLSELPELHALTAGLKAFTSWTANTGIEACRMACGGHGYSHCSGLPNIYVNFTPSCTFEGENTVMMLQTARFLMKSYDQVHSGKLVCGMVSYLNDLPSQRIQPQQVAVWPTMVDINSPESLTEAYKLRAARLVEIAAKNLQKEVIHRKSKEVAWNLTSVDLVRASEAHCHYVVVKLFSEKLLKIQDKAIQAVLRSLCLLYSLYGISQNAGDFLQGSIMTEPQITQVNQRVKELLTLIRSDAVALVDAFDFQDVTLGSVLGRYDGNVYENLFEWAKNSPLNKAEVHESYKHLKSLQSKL
Kind of experiment: Kinobeads two-dose competition binding: ACOX1.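 Note: competition of compounds with immobilized broad-spectrum kinase inhibitor beads in cell lysate at 100 and 1,000 nM, 45 min at 4 °C, bead-bound protein quantified by label-free MS versus DMSO.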 The note with it: sheet CATDS matrix 2; Gene Name ACOX1.

The mark [3] stands for this setting: average of replicates, read-out: Average of IC50 values NanoBRET PKN3.
Setting [4] is: biological replicate number 1, read-out: Rep 1 IC50 NanoBRET PKN3.
[5] abbreviates: biological replicate number 2, read-out: Rep 2 IC50 NanoBRET PKN3.
Where [6] appears, read: biological replicate number 3, read-out: Rep 3 IC50 NanoBRET PKN3.
The mark [7] stands for this setting: biological replicate number 4, read-out: Rep 4 IC50 NanoBRET PKN3.
Where [8] appears, read: HEK293T cells, in-cell target engagement, read-out: IC50 PKN3 NanoBRET.

PKN3, sequence (Q6P5Z2 whole entry): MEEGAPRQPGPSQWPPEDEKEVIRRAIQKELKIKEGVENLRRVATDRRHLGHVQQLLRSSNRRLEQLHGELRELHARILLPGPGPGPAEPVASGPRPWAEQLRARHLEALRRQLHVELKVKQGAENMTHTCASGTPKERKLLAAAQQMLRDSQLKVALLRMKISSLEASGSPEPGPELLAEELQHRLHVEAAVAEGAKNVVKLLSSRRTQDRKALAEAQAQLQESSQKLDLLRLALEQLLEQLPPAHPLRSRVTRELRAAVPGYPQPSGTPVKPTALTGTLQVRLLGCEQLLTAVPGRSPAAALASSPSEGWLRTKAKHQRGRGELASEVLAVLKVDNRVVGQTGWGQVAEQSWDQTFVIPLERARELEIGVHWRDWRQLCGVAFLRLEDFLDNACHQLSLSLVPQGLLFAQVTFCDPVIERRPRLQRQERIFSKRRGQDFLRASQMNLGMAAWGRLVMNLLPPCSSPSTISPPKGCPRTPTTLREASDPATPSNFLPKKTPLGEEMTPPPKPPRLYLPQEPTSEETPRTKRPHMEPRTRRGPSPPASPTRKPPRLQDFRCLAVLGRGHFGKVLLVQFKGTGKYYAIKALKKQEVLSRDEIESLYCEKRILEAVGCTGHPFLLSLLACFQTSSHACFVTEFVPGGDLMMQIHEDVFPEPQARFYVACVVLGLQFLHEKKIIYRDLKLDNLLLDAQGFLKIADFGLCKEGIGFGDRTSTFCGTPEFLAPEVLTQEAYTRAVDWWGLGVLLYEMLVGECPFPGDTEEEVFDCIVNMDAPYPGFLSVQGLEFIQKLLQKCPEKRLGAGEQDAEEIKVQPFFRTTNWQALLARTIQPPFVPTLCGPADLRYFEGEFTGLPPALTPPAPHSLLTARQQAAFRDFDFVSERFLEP
T4 sequence (Q2M2I8 whole entry): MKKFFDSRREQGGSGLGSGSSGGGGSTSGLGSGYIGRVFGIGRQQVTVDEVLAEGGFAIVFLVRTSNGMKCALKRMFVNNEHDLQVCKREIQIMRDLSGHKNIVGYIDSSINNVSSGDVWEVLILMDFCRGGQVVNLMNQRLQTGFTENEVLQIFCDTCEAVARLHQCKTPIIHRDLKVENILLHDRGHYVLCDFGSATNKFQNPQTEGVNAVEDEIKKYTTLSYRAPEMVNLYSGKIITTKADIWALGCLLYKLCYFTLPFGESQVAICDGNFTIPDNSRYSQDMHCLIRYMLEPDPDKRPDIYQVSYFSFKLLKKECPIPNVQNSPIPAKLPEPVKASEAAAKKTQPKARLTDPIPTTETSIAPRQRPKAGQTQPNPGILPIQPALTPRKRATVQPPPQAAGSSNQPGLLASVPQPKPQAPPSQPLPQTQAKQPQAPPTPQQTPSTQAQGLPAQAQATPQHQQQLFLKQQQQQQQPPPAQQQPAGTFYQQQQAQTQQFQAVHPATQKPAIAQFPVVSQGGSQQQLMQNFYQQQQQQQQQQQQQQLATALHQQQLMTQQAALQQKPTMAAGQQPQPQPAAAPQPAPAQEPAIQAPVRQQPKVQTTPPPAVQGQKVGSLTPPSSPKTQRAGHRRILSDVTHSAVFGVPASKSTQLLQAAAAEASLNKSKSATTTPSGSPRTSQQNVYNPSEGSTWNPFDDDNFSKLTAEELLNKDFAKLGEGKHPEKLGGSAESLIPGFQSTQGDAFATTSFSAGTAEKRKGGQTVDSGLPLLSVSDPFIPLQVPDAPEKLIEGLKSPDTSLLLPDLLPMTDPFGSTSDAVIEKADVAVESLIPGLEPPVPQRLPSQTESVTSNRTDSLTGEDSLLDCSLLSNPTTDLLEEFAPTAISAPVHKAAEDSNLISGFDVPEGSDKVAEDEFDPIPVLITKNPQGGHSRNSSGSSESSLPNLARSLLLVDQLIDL
T2 sequence (P42684 whole entry): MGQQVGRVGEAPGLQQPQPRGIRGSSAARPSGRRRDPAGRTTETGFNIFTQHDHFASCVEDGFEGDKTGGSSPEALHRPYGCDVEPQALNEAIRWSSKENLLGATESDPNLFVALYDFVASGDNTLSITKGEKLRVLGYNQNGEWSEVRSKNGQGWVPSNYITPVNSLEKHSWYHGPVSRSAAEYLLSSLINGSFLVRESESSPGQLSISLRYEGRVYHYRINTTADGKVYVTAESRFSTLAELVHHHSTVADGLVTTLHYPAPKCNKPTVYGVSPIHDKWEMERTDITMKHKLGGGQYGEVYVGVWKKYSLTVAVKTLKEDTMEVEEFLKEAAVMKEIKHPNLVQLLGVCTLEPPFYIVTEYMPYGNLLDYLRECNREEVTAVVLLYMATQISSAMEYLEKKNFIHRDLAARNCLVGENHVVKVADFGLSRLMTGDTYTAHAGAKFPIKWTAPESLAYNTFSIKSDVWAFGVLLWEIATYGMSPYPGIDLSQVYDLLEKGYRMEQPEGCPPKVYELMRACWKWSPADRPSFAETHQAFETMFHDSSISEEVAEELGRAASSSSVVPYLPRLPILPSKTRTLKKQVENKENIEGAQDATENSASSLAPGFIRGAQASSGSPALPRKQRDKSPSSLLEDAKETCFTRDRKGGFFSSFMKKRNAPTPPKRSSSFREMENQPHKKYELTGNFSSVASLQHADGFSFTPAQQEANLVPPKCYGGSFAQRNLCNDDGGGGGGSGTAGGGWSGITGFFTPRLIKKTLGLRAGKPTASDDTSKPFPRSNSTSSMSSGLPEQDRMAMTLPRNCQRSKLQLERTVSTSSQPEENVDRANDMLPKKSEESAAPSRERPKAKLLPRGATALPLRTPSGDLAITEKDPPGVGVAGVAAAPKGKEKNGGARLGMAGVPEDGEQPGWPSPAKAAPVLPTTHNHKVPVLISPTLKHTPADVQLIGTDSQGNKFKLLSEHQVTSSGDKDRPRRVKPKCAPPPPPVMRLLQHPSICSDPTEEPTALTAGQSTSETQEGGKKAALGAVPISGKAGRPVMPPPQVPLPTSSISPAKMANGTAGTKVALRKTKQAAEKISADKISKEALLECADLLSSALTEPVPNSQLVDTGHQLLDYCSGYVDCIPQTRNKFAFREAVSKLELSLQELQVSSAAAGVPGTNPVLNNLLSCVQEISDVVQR
T1 sequence (P00519 28-1130 limits assumed): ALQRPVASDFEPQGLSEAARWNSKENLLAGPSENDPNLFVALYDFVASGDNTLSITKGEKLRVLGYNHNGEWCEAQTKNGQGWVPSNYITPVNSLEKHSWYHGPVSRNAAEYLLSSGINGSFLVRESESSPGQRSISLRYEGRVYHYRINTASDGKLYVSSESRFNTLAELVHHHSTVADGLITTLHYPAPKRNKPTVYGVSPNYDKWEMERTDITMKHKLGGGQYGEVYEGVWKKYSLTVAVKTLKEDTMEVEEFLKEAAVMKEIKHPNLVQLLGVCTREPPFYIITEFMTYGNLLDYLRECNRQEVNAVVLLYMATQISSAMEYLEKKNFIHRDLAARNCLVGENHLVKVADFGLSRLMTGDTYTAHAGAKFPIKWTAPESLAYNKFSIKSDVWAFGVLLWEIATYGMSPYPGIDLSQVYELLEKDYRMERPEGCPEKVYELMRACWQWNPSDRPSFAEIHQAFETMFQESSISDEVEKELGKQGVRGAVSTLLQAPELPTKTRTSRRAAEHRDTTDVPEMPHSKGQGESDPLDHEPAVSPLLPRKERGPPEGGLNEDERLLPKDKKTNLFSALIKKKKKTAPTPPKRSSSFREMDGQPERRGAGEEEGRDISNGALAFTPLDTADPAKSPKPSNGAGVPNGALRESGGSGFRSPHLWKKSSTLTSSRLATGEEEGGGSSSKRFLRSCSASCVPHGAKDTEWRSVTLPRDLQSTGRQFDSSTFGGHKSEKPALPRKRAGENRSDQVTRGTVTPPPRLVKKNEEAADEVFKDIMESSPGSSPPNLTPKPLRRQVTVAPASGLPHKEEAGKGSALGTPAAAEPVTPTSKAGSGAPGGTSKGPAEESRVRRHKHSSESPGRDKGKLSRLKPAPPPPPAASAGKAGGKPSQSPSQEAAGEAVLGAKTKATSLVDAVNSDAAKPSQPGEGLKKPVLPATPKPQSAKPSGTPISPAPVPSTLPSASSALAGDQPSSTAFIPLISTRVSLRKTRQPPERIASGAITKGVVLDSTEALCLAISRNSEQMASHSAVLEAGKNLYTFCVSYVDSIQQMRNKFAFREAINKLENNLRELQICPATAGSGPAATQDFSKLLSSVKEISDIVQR

Usually IC50 stands for the midpoint of a concentration-inhibition curve. `CCn1c(-c2nonc2N)nc2c(C#CCN)ncc(OCCCN)c21` [GSK561866B]: the IC50 on PKN3 (setting [3]) turned out to be 7970 nM; on PKN3 (setting [4]), 12900 nM; on PKN3 (setting [5]) it was 11200 nM; on PKN3 (setting [6]), 4910 nM; on PKN3 (setting [7]), 2820 nM.
On to `CNC(=O)c1ccccc1Nc1nc(Nc2ccc(N3CCOCC3)cc2)ncc1Cl` [GSK1576028A], for which the potency estimated from few doses on ABL1 [1] was > 1000 nM; at AAK1, 142 nM. For the same compound, the CATDS was found to be 0 at ABL2; 0 on ACAD11; 0 at ABL1 [2]; 0.02054 on AAK1; 0 at ACOX1.
With `Cc1cccc2c(-c3ccncn3)c(-c3ccc(F)cc3)nn12` [GW515532X], the IC50 on PKN3 (setting [3]) was 26700 nM; on PKN3 (setting [5]), 922 nM; on PKN3 (setting [7]), 257 nM.
Turning to `CCn1c(-c2nonc2N)nc2c(-c3ccccc3)ncc(OCCCN)c21` [GSK260205A], the IC50 at PKN3 (setting [8]) is 74 nM; on PKN3 (setting [3]), 22.3 nM; on PKN3 (setting [4]) it was 73.6 nM; on PKN3 (setting [5]) it was 6.19 nM; at PKN3 (setting [6]), 6.22 nM; on PKN3 (setting [7]) it was 3.37 nM.
Regarding `CNc1ncc2cc(-c3cc(NC(=O)NCCC(C)(C)C)c(F)cc3C)c(C)nc2n1` [LY3009120, reference compound], the IC50 on PKN3 (setting [3]) turned out to be 513 nM; on PKN3 (setting [4]) it was 538 nM; at PKN3 (setting [5]), 1230 nM; on PKN3 (setting [6]), 111 nM; on PKN3 (setting [7]), 173 nM.
`Cc1cccc(-c2nc(Nc3ccncc3)c3sccc3n2)n1` [GW869641X]: the IC50 at PKN3 (setting [8]) turned out to be 4100 nM; at PKN3 (setting [3]), 1580 nM; on PKN3 (setting [4]), 4190 nM; at PKN3 (setting [5]) it was 472 nM; on PKN3 (setting [7]), 87.1 nM.
As for `ON=C1CCc2cc(-c3nc(C4CCNCC4)[nH]c3-c3ccncc3)ccc21` [SB-614067-R], the IC50 was 22900 nM on PKN3 (setting [3]); 19100 nM at PKN3 (setting [4]); 20600 nM on PKN3 (setting [5]); 50100 nM at PKN3 (setting [6]); 1840 nM on PKN3 (setting [7]).
With `NC[C@@](O)(c1ccc(Cl)cc1)c1ccc(-c2cn[nH]c2)cc1` [AT-13148, reference compound], the CATDS on ABL2, on ACAD11, at ABL1 [2], at AAK1 and at ACOX1 was 0 in each case. Also, the IC50 at PKN3 (setting [8]) came out at 2060 nM.
Regarding `CCn1c(-c2nonc2N)nc2c(C#CC(C)(C)O)nc(CN3CCCC3)cc21` [GSK1000163A], the CATDS on ABL2, at ACAD11, on ABL1 [2], at AAK1 and at ACOX1 was 0 in each case. Moreover, the IC50 is 11000 nM on PKN3 (setting [8]); 6970 nM at PKN3 (setting [3]); 11100 nM at PKN3 (setting [4]); 9200 nM at PKN3 (setting [5]); 6130 nM on PKN3 (setting [6]); 1430 nM on PKN3 (setting [7]).
`CCOc1nccc2c1nc(-c1nonc1N)n2CC` [SB-737198]: the IC50 on PKN3 (setting [3]), on PKN3 (setting [4]), at PKN3 (setting [5]), at PKN3 (setting [6]) and on PKN3 (setting [7]) was > 50000 nM in each case.
Turning to `Fc1ccc(-c2c(-c3ccncc3)[nH]c3cccnc23)cc1` [RO1153853-000], the IC50 at PKN3 (setting [8]) worked out at 8000 nM; on PKN3 (setting [3]), 2360 nM; at PKN3 (setting [4]) it was 8030 nM; on PKN3 (setting [5]) it was 951 nM; at PKN3 (setting [6]), 164 nM; on PKN3 (setting [7]) it was 295 nM.
`CCn1c(-c2nonc2N)nc2c(C#CC(C)(C)O)nc(OC[C@@H](N)c3ccccc3)cc21` [GSK938890A]: the 50% inhibitory concentration (IC50) at PKN3 (setting [3]) is 97.8 nM; at PKN3 (setting [4]), 310 nM; on PKN3 (setting [5]), 31.2 nM; at PKN3 (setting [6]) it was 28.1 nM; at PKN3 (setting [7]) it was 22.3 nM.
Consider `COc1cccc2c(-c3ccncc3)c(-c3ccc(F)cc3)nn12` [GW468513X], for which the IC50 on PKN3 (setting [3]) amounted to 910 nM; at PKN3 (setting [4]) it was 2110 nM; on PKN3 (setting [5]), 552 nM; at PKN3 (setting [7]), 73.9 nM.
Consider `CCNCC(Cc1ccccc1)NC(=O)c1cc(Br)c(-c2ccnc3[nH]ccc23)s1` (centres unmarked) [GSK1383280A], for which the CATDS on ABL2, on ACAD11, at ABL1 [2], on AAK1 and at ACOX1 was 0 in each case.
Regarding `c1ccc(-c2cc3ccncc3cc2OC2CCNCC2)cc1` [GSK1122999D], the CATDS on ABL2, on ACAD11, on ABL1 [2], at AAK1 and on ACOX1 was 0 each time.
On to `CCS(=O)(=O)N1CC(CC#N)(n2cc(-c3ncnc4[nH]ccc34)cn2)C1` [Baricitinib, reference compound], for which the CATDS is recorded as 0 at ABL2; 0 on ACAD11; 0 on ABL1 [2]; 0.1267 at AAK1; 0 at ACOX1.
Regarding `COc1cc(N2CCN(C(C)C)CC2)ccc1Nc1nc(Nc2cccc3ncccc23)c2cc[nH]c2n1` [GSK1511931A], the CATDS at ABL2, at ACAD11, on ABL1 [2], at AAK1 and at ACOX1 was 0 each time.
On to `Cc1cccc(Nc2nc(N[C@H]3CCNC3)ncc2C(N)=O)c1` [GSK2197149A], for which the CATDS turned out to be 0 at ABL2; 0 on ACAD11; 0 on ABL1 [2]; 0.1293 on AAK1; 0 on ACOX1. Besides, the potency estimated from few doses at AAK1 was 64.6 nM.
Consider `Nc1nc(-c2ccc3c(N)n[nH]c3c2)cc(N2CCCC(NC(=O)c3ccccc3)C2)n1` (centres unmarked) [GSK2286775B], for which the CATDS at ABL2 is on record as 0; on ACAD11, 0; on ABL1 [2] it was 0; at AAK1, 0.05355; at ACOX1, 0.
Turning to `COC(=O)C(NC(=O)NC1CCN(c2ccnc(Nc3ccc(F)cc3)n2)C1)c1ccccc1` (centres unmarked) [GSK1379712_KCGS], the CATDS at ABL2, at ACAD11, on ABL1 [2], at AAK1 and at ACOX1 was 0 throughout.
In the case of `O=C(c1ccc(F)c(F)c1Nc1ccc(I)cc1F)N1CC(O)([C@@H]2CCCCN2)C1` [Cobimetinib, reference compound], the CATDS on ABL2, on ACAD11, on ABL1 [2], at AAK1 and on ACOX1 was 0 each time.
Regarding `COc1ccc(Nc2nccc(N3CCC(NC(=O)c4cccc(C#N)c4)C3)n2)cc1` (centres unmarked) [GSK1379730A], the CATDS on ABL2, at ACAD11, on ABL1 [2], on AAK1 and on ACOX1 was 0 throughout.
